According to patent US9604936B2, “Besylate salt of a BTK inhibitor” (Celgene Avilomics Research, Inc., priority 2010, dated 2017):
Where two headings read alike, the source gives them in different places.

Experiments:
B-cell proliferation [1] = settings: in vivo; cited from earlier work
BTK = BTK (Homo sapiens, UniProt Q06187); settings: enzymatic and cellular assays; cited from earlier work
B-cell proliferation [2] = settings: in vitro; cited from earlier work
[3] = Solubility of Compound 2 by manual dilution combined with visual observation; assay type: physicochemical; settings: thermodynamic from solid
Description: Solubility of Compound 2, at room temperature, was measured in seventeen solvents and two solvent mixtures by manual dilution combined with visual observation.

Sequence of BTK (Q06187 whole entry, species assumed): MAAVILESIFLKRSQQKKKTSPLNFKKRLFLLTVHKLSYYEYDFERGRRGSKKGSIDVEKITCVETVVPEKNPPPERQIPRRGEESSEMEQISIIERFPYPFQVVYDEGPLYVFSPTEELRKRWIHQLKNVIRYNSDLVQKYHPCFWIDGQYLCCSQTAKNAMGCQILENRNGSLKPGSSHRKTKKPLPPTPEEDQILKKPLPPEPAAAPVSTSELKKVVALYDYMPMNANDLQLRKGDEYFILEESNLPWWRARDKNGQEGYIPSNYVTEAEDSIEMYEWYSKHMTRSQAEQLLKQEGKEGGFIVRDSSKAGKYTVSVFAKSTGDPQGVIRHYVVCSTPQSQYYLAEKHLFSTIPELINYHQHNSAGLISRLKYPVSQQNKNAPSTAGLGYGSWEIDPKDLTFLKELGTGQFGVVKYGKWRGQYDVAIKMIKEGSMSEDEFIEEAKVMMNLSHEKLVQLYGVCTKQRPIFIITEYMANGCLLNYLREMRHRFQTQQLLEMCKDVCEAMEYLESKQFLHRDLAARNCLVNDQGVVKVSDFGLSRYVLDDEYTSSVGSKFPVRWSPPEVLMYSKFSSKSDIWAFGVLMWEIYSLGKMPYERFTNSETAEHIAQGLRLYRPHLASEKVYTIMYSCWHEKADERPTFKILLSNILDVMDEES

In the case of C=CC(=O)Nc1cccc(Nc2nc(Nc3ccc(OCCOC)cc3)ncc2F)c1 [Compound 1, N-(3-(5-fluoro-2-(4-(2-methoxyethoxy)phenylamino)pyrimidin-4-ylamino)phenyl)acrylamide], the “inhibition of B-cell proliferation” value (B-cell proliferation [1]) is given as “inhibit B-cell proliferation”, the “inhibition of BTK” value (BTK) is given as “covalent, irreversible inhibition of BTK” and the “inhibition of B-cell proliferation” value (B-cell proliferation [2]) is given as “inhibit B-cell proliferation”.
In the case of C=CC(=O)Nc1cccc(Nc2nc(Nc3ccc(OCCOC)cc3)ncc2F)c1.O=S(=O)(O)c1ccccc1 [Compound 2], the solubility ([3]; aqueous with cosolvent or surfactant or cyclodextrin, 1:1 DMF:H2O, room temperature) is reported as 71000 to 106000 µg/mL, the solubility ([3]; aqueous with cosolvent or surfactant or cyclodextrin, 3:7 DMF:H2O, room temperature) is reported as 16000 to 18000 µg/mL and the solubility ([3]; organic solvent or mixture, 1,4-dioxane, room temperature) is reported as less than 1000 µg/mL. The solubility ([3]; organic solvent or mixture, Acetone, room temperature) was roughly 2500 µg/mL, the solubility ([3]; organic solvent or mixture, Anisole, room temperature) was less than 1000 µg/mL and the solubility ([3]; organic solvent or mixture, Benzyl alcohol, room temperature) was 97000 to 194000 µg/mL. The solubility ([3]; organic solvent or mixture, CH2Cl2, room temperature) was less than 1000 µg/mL, the solubility ([3]; organic solvent or mixture, CH3CN, room temperature) was roughly 2000 µg/mL and the solubility ([3]; organic solvent or mixture, DMF, room temperature) was greater than 184000 µg/mL. The solubility ([3]; organic solvent or mixture, Ethanol, room temperature) was roughly 2000 µg/mL, the solubility ([3]; organic solvent or mixture, Ethyl Acetate, room temperature) was less than 1000 µg/mL and the solubility ([3]; organic solvent or mixture, Isopropanol, room temperature) was less than 1000 µg/mL. For the same compound, the solubility ([3]; organic solvent or mixture, Methanol, room temperature) was 26000 to 29000 µg/mL, the solubility ([3]; organic solvent or mixture, Pyridine, room temperature) was greater than 234000 µg/mL and the solubility ([3]; organic solvent or mixture, TBME, room temperature) was less than 1000 µg/mL. The solubility ([3]; organic solvent or mixture, THF, room temperature) was roughly 2000 µg/mL, the solubility ([3]; organic solvent or mixture, Toluene, room temperature) was less than 1000 µg/mL and the solubility ([3]; Water, room temperature) was less than 1000 µg/mL.
